Source: patent publication US12702478B2, “Devices, methods, and compositions for thermal acceleration and drug delivery” (Rhode Island Hospital, priority 2015, dated 2026)
Where two headings read alike, the source gives them in different places. Values belong to the compound of their own block, whether it stands above or below them.

Assays:
[1] = at 100° C.; cited from earlier work
rat = conditions: cited from earlier work
[2] = Doxorubicin diffusion from coagulated gel in agarose phantom; type: physicochemical; conditions: 2.0 mg in 0.5 mL gel
Protocol: Method 1: In a 1% (w/v) agarose gel as phantom, HSA-based #1 gel (0.5 mL) with Doxorubicin HCl (2.0 mg) was placed 1 cm away from a MW antenna at ambient temperature. The ablation was performed at 60 W for 10 minutes (MicroThermX/Varian 915 MHz). Post ablation, the cooled agarose gel was left at ambient temperature for 48 hours for diffusion of the Doxorubicin.
The solution contained 1 (w/v) % agarose phantom. The ablation conditions: 915 MHz, 60 W for 10 minutes.

[3] = In vitro elution of Doxorubicin from coagulated gel (HPLC); type: physicochemical; conditions: for part of drug eluted out over time: citrate buffer pH 7, 36.5° C.
Protocol: Methods 2 Absorbance values of three known concentrations of Doxorubicin samples (1.0×10^−6, 9.5×10^−6 and 1.9×10^−5 M) were obtained to established a linear relationship (FIG. 4, Left) using a HPLC system: Agilant 1100; mobile phase=a gradient of ACN and H2O with 1% ammonium acetate; wavelength=500 nm; flow rate=1 mL/min. Each data point was an average of three measurements. Under the HPLC conditions, the retention time of Doxorubicin was at 4.00 minutes. Separately, three different amounts of Doxorubicin (2.1, 1.1 and 0.6 mg) were mixed with HSA-based #1 gel (0.5 mL each) and ablated using the conditions described in Aim 1. Once complete, the coagulated gel impregnated with Doxorubicin was collected and placed in a citrate buffer (5 mL, pH 7) in a water bath at 36.5° C. At 1, 3, 24 and 72 h, a small quantity of solution (0.5 mL) was passed through a membrane filter (cutoff 7 KDa) and injected into the HPLC system to quantify the eluted Doxorubicin. Each data point was triplicated.

[4] = In vitro elution of Resiquimod from coagulated gel (HPLC); type: physicochemical
Protocol: Methods 3 Absorbance values of three known concentrations of Resiquimod samples (4.3×10−6, 4.3×10−5 and 8.6×10−5 M) were obtained to established a linear relationship (FIG. 23A) using the HPLC system as described in Methods 2 except wavelength=328 nm and the retention time=3.31 min.

[5] = Dielectric properties by open-ended coaxial measurement; type: physicochemical
Source text: Materials or formulations with a high dipole moment as potential thermal accelerants can be expressed by the ε″ and σ values for thermal ablation (radiofrequency, microwave, irreversible electroporation. A person skilled in the art will recognize that in order to show the capacity of a material, or formulations of a material, quantitatively as a thermal accelerant, the concept of permittivity can be employed in lieu of, or in addition to, evaluation of dipole moment. For example, materials can be tested using an electromagnetic wave of sinusoidal frequency ω, which is directed at a subject sample by an open-ended coaxial cable of a low-power oscillator. Measurement of the magnitude and phase of the fraction of the wave which is reflected allows deduction of the complex permittivity of the tissue.
The complex permittivity is defined as ε*=ε′−jε″, where ε′ is the real permittivity and ε″ is the imaginary permittivity. […] The real permittivity is also known as the dielectric constant. The imaginary permittivity is also called the loss factor and can be written ε″=σ/(ωε0), so as to incorporate the electrical conductivity of the material, […]. The quantity a directly scales the power deposited per unit volume according to the following expression, ARD=σ|E|^2, where ARD is Absorption Rate Density (watt m^−3), […] is electrical conductivity (ohm^−1 m^−1), and JEJ is the magnitude of the electrical field (volt m^−1) produced by the microwave antenna at the point of interest in the tissue.

[6] = reference values; cited from earlier work

Structure (SMILES): [Cl-].[Cs+] [CsCl, cesium chloride]
solubility in water [1]: 2.7 kg/L
LD50 (rat; iv): 910 mg/kg
LD50 (rat; oral): 2,600 mg/kg

diffusion to the surrounding area of the phantom ([2]; 6 h after ablation): apparent
diffusion out of coagulated gel ([2]; immediately after ablation): no diffusion out of the protein meshwork
part of drug eluted out over time ([3]; 0.6 mg in 0.5 mL gel): 87%
part of drug eluted out over time ([3]; 1.1 mg in 0.5 mL gel): 64%
part of drug eluted out over time ([3]; 2.1 mg in 0.5 mL gel): 57%
elution rate over time ([3]; 1, 3, 24, 72 h): highest at 1 h
part of drug eluted out over time ([4]; 0.063 mg): 87%
part of drug eluted out over time ([4]; 0.63 mg): 64%
part of drug eluted out over time ([4]; 1.25 mg): 57%
Structure (SMILES): COc1cccc2c1C(=O)c1c(O)c3c(c(O)c1C2=O)C[C@@](O)(C(=O)CO)C[C@@H]3O[C@H]1C[C@H](N)[C@H](O)[C@H](C)O1 [Doxorubicin]

Structure (SMILES): CO [MeOH, methanol]
Dielectric constant (ε′) ([5]; 915 MHz): 31.2
electrical conductivity (σ) ([5]; 915 MHz): 0.1 mho/m
Dielectric constant (ε′) ([5]; 2450 MHz): 22.2
electrical conductivity (σ) ([5]; 2450 MHz): 0.1

Structure (SMILES): O [Water (deionized)]
Electrical Conductivity (σ) of reference media [6]: 5 × 10^−6 S/m

Structure (SMILES): O [Water]
Dielectric constant (ε′) ([5]; 915 MHz): 78.3
electrical conductivity (σ) ([5]; 915 MHz): 0 mho/m
Dielectric constant (ε′) ([5]; 2450 MHz): 76.9
electrical conductivity (σ) ([5]; 2450 MHz): 0.1
